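48-hour exposure; five concentrations; linearly interpolated endpoints. Here, GI50 denotes the concentration required for 50% inhibition of growth. TGI denotes the concentration required for complete inhibition of growth.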
Experiments:
Test in all cases: DTP human tumour cell line panel, 48 h
[1] = tested on: BT-549 breast
[2] = tested on: NCI-H226 lung
[3] = tested on: MALME-3M melanoma
[4] = tested on: PC-3 prostate
[5] = tested on: SK-OV-3 ovarian
[6] = tested on: SNB-75 CNS
[7] = tested on: RXF 393 renal
[8] = tested on: M14 melanoma
[9] = tested on: SW-620 colon
[10] = tested on: HOP-62 NSCLC

| SMILES | GI50 [1] | TGI [1] | GI50 [2] | TGI [2] | GI50 [3] | TGI [3] | GI50 [4] | TGI [4] | GI50 [5] | TGI [5] | GI50 [6] | TGI [6] | GI50 [7] | TGI [7] | GI50 [8] | TGI [8] | GI50 [9] | TGI [9] | GI50 [10] | TGI [10] |
| --- | --- | --- | --- | --- | --- | --- | --- | --- | --- | --- | --- | --- | --- | --- | --- | --- | --- | --- | --- | --- |
| Cc1cc2c(C(C)C)c(O)c(O)c(C=O)c2c(O)c1-c1c(C)cc2c(C(C)C)c(O)c(O)c(C=O)c2c1O (tested in a mixture with another compound) | 1.26 µM | 3.76 µM | 1.39 µM | 4.95 µM | 1.74 µM | 5.01 µM | 0.455 µM | 3.42 µM | 1.78 µM | 9.33 µM | 1.55 µM | 5.03 µM | 1 µM | 2.52 µM | 1.5 µM | 3.61 µM | 0.806 µM | 2.33 µM | 0.988 µM | 2.9 µM |
| CC(=O)N[C@@H](Cc1ccc(OP(=O)(O)O)cc1)C(=O)N[C@H]1CCC(=O)N2CCC[C@@H](C(=O)NCc3ccc(O)cc3)N2C1=O | > 25 µM | > 25 µM | > 25 µM | > 25 µM | > 25 µM | > 25 µM | > 25 µM | > 25 µM | > 25 µM | > 25 µM | > 25 µM | > 25 µM | > 25 µM | > 25 µM | > 25 µM | > 25 µM | > 25 µM | > 25 µM | > 25 µM | > 25 µM |
| Brc1ccc(Br)nn1 | 1.52 µM | 2.96 µM | 2.28 µM | 5.57 µM | 1.75 µM | 3.7 µM | 4.41 µM | 22 µM | 8.64 µM | 20.8 µM | 1.97 µM | 8.41 µM | 1.32 µM | 2.63 µM | 1.39 µM | 2.82 µM | 1.66 µM | 6.54 µM | 4.02 µM | 10.1 µM |
| COC(=O)Nc1nc2ccc(Sc3ccccc3)cc2[nH]1 | 1.04 µM | 18.8 µM | 0.291 µM | 1.7 µM | 0.444 µM | 18.8 µM | 0.214 µM | > 37.4 µM | 0.179 µM | 0.684 µM | 0.195 µM | 2.05 µM | 0.154 µM | 0.51 µM | 0.0892 µM | 1.43 µM | 0.107 µM | > 48.3 µM | 0.277 µM | 4.23 µM |
| N#CC(C#N)=Cc1ccc(-c2ccc(-c3nc4ccccc4o3)cc2)o1 | > 100 µM | > 100 µM | 21 µM | 99.7 µM | 41.9 µM | > 100 µM | 29.5 µM | > 100 µM | 38.3 µM | > 100 µM | > 100 µM | > 100 µM | 96.2 µM | > 100 µM | 77.4 µM | > 100 µM | 20.5 µM | > 100 µM | 21.6 µM | 51.9 µM |
| ClC1=C(Cl)C(Cl)=C(Cl)C1=Cc1ccc(Cl)cc1 | 0.428 µM | 1.58 µM | 0.389 µM | 1.86 µM | 1.42 µM | 3.6 µM | 0.876 µM | 6.5 µM | 1.64 µM | 3.55 µM | 1.44 µM | 3.26 µM | 0.267 µM | 0.842 µM | 0.287 µM | 0.904 µM | 0.241 µM | 0.68 µM | 0.802 µM | 2.3 µM |
| O=C1c2ccccc2C(=O)c2c(NC(=O)c3ccc4c5c(ncnc35)-c3ccccc3C4=O)cccc21 | – | > 100 µM | – | > 100 µM | – | > 100 µM | – | > 100 µM | – | 48.2 µM | – | 58.5 µM | – | 49.1 µM | – | > 100 µM | – | > 100 µM | – | 42.7 µM |
| CC(=O)OCC(=O)C1(O)C(C)CC2C3C=C(C)C4=Cc5c(cnn5-c5ccccc5)CC4(C)C3C(O)CC21C (stereo not drawn) | 1.25 µM | 3.85 µM | 2.16 µM | 11.2 µM | 1.5 µM | 5.2 µM | 1.69 µM | 5.83 µM | – | 5.71 µM | 1.89 µM | 5.92 µM | 0.781 µM | 2.39 µM | 1.76 µM | 3.69 µM | 1.7 µM | 3.42 µM | 1.35 µM | 3.52 µM |
| CSc1ccc(C2=NN(C(=O)c3ccc(N)cc3)C(c3ccc(F)cc3)C2)cc1 (stereo not drawn) | 12.3 µM | 28.1 µM | 11 µM | 29.6 µM | 8.09 µM | 23 µM | 4.5 µM | 19.1 µM | 16.2 µM | 31.7 µM | 14.2 µM | 28.1 µM | 17.7 µM | 34.1 µM | 4.24 µM | 15.1 µM | 6.27 µM | 26.3 µM | 16 µM | 29.8 µM |
| COc1cnc2c(c1)C(=O)c1c-2n(CCCN2CCN(CCO)CC2)c(=O)c2cc([N+](=O)[O-])ccc12 | 2.9 µM | 18.9 µM | 0.964 µM | 20 µM | 1.56 µM | 3.33 µM | 16.5 µM | 92.6 µM | 4.99 µM | 20.2 µM | 1.64 µM | 13.1 µM | 4.68 µM | 20.4 µM | 0.769 µM | 2.49 µM | 0.326 µM | 2.07 µM | 2.76 µM | 19.6 µM |
| COc1cc(C2C(C#N)=C(N)Oc3cc4c(cc32)OCO4)cc2c1OCO2 (stereo not drawn) | 1.8 µM | 29.5 µM | 0.273 µM | 4.59 µM | 2.67 µM | > 100 µM | 0.278 µM | > 100 µM | 0.439 µM | – | 0.178 µM | > 100 µM | 0.146 µM | 0.546 µM | 0.418 µM | > 100 µM | 0.276 µM | > 100 µM | 0.393 µM | > 100 µM |
| CNCCOc1nc2c3cnccc3cc(-c3cc(OC)c(OC)c(OC)c3)c2c2ccncc12 | 0.103 µM | 0.613 µM | 0.054 µM | 0.37 µM | 0.0392 µM | 0.194 µM | 0.0471 µM | 1.12 µM | 0.0323 µM | 0.185 µM | 0.0304 µM | 0.162 µM | 0.0469 µM | 0.188 µM | 0.0233 µM | 0.147 µM | 0.0243 µM | 1.7 µM | 0.0224 µM | 0.166 µM |
| COc1cc2c3c(c1O)C1(C=CC(=O)C=C1)CC3N(C)CC2 (stereo not drawn) | – | 30.6 µM | – | > 100 µM | – | 24.8 µM | – | 31.1 µM | – | > 100 µM | – | 43.4 µM | – | 19.4 µM | – | 24.5 µM | – | 18.3 µM | – | 25.7 µM |
| CCCCCCC1N=C(N)N=C(N)N1c1ccc(Cl)cc1 (stereo not drawn) | 3.37 µM | 18.3 µM | 13.2 µM | 54.2 µM | 2.1 µM | 21 µM | 2.9 µM | 52.8 µM | 20.9 µM | 63.1 µM | 6.31 µM | 33.5 µM | 10.6 µM | 38.6 µM | 3.04 µM | 23.5 µM | 4.05 µM | 32.2 µM | 6.93 µM | 39.6 µM |
| C[C@@H]1CN2[C@H]3[C@@H]1CC[C@]31CCC(=O)O[C@]1(C)[C@@H]1CC[C@H]3CCC=C3[C@@H]12 | > 70 µM | > 70 µM | > 70 µM | > 70 µM | > 70 µM | > 70 µM | > 70 µM | > 70 µM | > 70 µM | > 70 µM | 35.3 µM | > 70 µM | > 70 µM | > 70 µM | > 70 µM | > 70 µM | > 70 µM | > 70 µM | > 70 µM | > 70 µM |
| NC(=O)NC(=O)C1CCCCC1C(=O)O (stereo not drawn) | – | > 100 µM | – | > 100 µM | – | > 100 µM | – | > 100 µM | – | > 100 µM | – | > 100 µM | – | > 100 µM | – | > 100 µM | – | > 100 µM | – | > 100 µM |

Reference: PubChem BioAssay (NCI)
